US20100184759A1, “PYRANO-PYRAZOLE-AMINES” (priority 2007, published 2010)

Experiments:
[1] = molecular target: T1, σ1-receptor (Cavia porcellus, UniProt Q60492); experiment: Sigma 1 (Version B) receptor binding, [3H]-(+)-pentazocine, guinea pig brain preparation; settings: radioligand [3H]-(+)-pentazocine 2 nM
T1 construct: the σ1-receptor preparation was prepared from guinea pig brain; from tissue; host or cells: guinea pig brain membrane homogenate
Protocol: In brief the σ1-receptor preparation was prepared from guinea pig brain. The brains were homogenized in 5 to 6 times of volume sucrose solution (0.32M) and homogenized. The homogenate was centrifuged at 2900 rpm, 4° C., 10 min). the supernatant was centrifuged again (23500×g, 4° C., 20 min). The pellet was resuspended in Tris-buffer, incubated for 30 min at room temperature and centrifuged f (23500×g, 4° C., 20 min). The pellet was resuspended in cold TRIS-buffer and homogenized. Then the protein content was measured (approx. 1.5 mg/mL) and the homogenate frozen at −80° C. for later use.
The radioligand used was [^3H]-(+)-Pentazocin in TRIS-buffer. In a volume of 200 μL 50 μL TRIS-buffer, 50 μL compound solution of varying concentration, 50 μL radioligand-solution (8 nM; resulting in 2 nM in the assay) and finally 50 μL of receptor preparation (approx. 1.5 mg/mL) were given into a well of a microplate equipped with a filter. The plate was closed and stirred for 2.5 h at 37° C. and 500 rpm. Following that the solvents were removed by a harvester through the filter. After rinsing with H2O the filter was measured in a scintillation counter ([^3H]-protocol).

[2] = molecular target: T2, σ2-receptor (Rattus norvegicus, UniProt Q5U3Y7); experiment: Sigma 2 (Version B) receptor binding, [3H]-ditolylguanidine, rat liver preparation; settings: for Ki: radioligand [3H]-ditolylguanidine 3 nM, σ1 sites masked with (+)-pentazocine; for inhibition at 1 µM: compound at 1 μM, value in square brackets
T2 construct: the σ2-Receptorpreparation was prepared from rat liver; from tissue; host or cells: rat liver membrane homogenate
T2 sequence (Q5U3Y7 1-176): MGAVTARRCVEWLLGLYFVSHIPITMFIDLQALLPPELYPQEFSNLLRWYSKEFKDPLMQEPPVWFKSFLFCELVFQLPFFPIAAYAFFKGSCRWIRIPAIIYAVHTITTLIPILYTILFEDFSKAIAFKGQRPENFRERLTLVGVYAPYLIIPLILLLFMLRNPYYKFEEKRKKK
Protocol: In brief the σ2-Receptorpreparation was prepared from rat liver. The livers were homogenized in 5 to 6 times of volume sucrose solution (0.32M) and homogenized. The homogenate was centrifuged at 2900 rpm, 4° C., 10 min). the supernatant was centrifuged again (31000×g, 4° C., 20 min). The pellet was resuspended in TRIS-buffer, incubated for 30 min at room temperature while stirring and centrifuged f (31000×g, 4° C., 20 min). The pellet was resuspended in cold TRIS-buffer pH 8 and homogenized. Then the protein content was measured (approx. 2 mg/mL) and the homogenate frozen at −80° C. for later use.
The radioligand used was [^3H]-Ditolylguanidin in TRIS-buffer pH 8. The σ1-receptor binding sites were masked through (+)-Pentazocin-solution in TRIS-Puffer pH 8.
In a volume of 200 μL 50 μL compound solution of varying concentration, 50 μL (+)-Pentazocin-solution (2 nM; resulting in 500 nM in the assay), 50 μL radioligand-solution (12 nM; resulting in 3 nM in the assay) and finally 50 μL of receptor preparation (approx. 2 mg/mL) were given into a well of a microplate equipped with a filter. The plate was closed and stirred for 2 h at room temperature and 500 rpm. Following that the solvents were removed by a harvester through the filter. After rinsing with H2O the filter was measured in a scintillation counter ([^3H]-protocol).

T1 sequence (Q60492 whole entry): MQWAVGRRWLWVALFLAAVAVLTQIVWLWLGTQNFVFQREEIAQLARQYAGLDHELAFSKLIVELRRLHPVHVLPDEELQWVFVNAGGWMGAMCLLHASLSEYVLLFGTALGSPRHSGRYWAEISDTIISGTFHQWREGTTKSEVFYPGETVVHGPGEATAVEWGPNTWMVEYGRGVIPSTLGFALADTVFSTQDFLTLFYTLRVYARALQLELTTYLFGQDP

| Ki [1] [nM] | Ki [2] [nM] | inhibition at 1 µM [2] [%] | melting point [°C] | Structure (SMILES) |
| --- | --- | --- | --- | --- |
| 0.988 ± 0.07 | 15.1 ± 2.98 |  |  | c1ccc(C2CCN(CCC3OCCc4c3cnn4-c3ccccc3)CC2)cc1 (stereo not shown) [Example 9, 1-Phenyl-4-[2-(4-phenyl-piperidin-1-yl)-ethyl]-1,4,6,7-tetrahydro-pyrano[4,3-c]pyrazole] |
| 2.94 ± 0.43 | 431 |  |  | c1ccc(N2CCN(CCC3OCCc4c3cnn4-c3ccccc3)CC2)cc1 (stereo not shown) [Example 11, 1-Phenyl-4-[2-(4-phenyl-piperazin-1-yl)-ethyl]-1,4,6,7-tetrahydro-pyrano[4,3-c]pyrazole] |
| 169 ± 39.6 |  | 5 | 115 | c1ccc(-n2ncc3c2CCOC3CN2CCOCC2)cc1 (stereo not shown) [Example 3, 4-(Morpholin-4-ylmethyl)-1-phenyl-1,4,6,7-tetrahydro-pyrano[4,3-c]pyrazole] |
| 219 ± 7.22 |  | 13 | 66 | CN1CCN(CC2OCCc3c2cnn3-c2ccccc2)CC1 (stereo not shown) [Example 5, 4-(4-Methylpiperazin-1-ylmethyl)-1-phenyl-1,4,6,7-tetrahydropyrano[4,3-c]pyrazole] |
| 24 ± 2 | 1280 |  |  | CN(C)CCC1OCCc2c1cnn2-c1ccccc1 (stereo not shown) [Example 14, Dimethyl-[2-(1-phenyl-1,4,6,7-tetrahydro-pyrano[4,3-c]pyrazol-4-yl)-ethyl]-amine] |
| 42.3 ± 3.32 | 210 ± 54.2 |  | 151 | c1ccc(N2CCN(CC3OCCc4c3cnn4-c3ccccc3)CC2)cc1 (stereo not shown) [Example 4, 1-Phenyl-4-(4-phenylpiperazin-1-ylmethyl)-1,4,6,7-tetrahydropyrano[4,3-c]pyrazole] |
| 10.5 ± 1.16 | 453 |  | 91 | c1ccc(-n2ncc3c2CCOC3CN2CCCCC2)cc1 (stereo not shown) [Example 1, 1-Phenyl-4-(piperidin-1-ylmethyl)-1,4,6,7-tetrahydro-pyrano[4,3-c]pyrazole] |
| 1380 |  | 12 | 103 | CN(C)CC1OCCc2c1cnn2-c1ccccc1 (stereo not shown) [Example 7, N,N-Dimethyl-1-(1-phenyl-1,4,6,7-tetrahydropyrano[4,3-c]pyrazole-4-yl)methanamine] |
| 1.6 ± 0.41 | 8.3 ± 2.66 |  |  | c1ccc(C2CCN(CC3OCCc4c3cnn4-c3ccccc3)CC2)cc1 (stereo not shown) [Example 2, 1-Phenyl-4-(4-phenylpiperidin-1-ylmethyl)-1,4,6,7-tetrahydropyrano[4,3-c]pyrazole] |
| 59.3 ± 11.2 | 322 |  | 89 | c1ccc(-n2ncc3c2CCOC3CN2CCCC2)cc1 (stereo not shown) [Example 6, 1-Phenyl-4-(pyrrolidin-1-ylmethyl)-1,4,6,7-tetrahydro-pyrano[4,3-c]pyrazole] |
| 2.98 ± 0.72 | 536 |  |  | c1ccc(-n2ncc3c2CCOC3CCN2CCCCC2)cc1 (stereo not shown) [Example 8, 1-Phenyl-4-(2-piperidin-1-yl-ethyl)-1,4,6,7-tetrahydro-pyrano[4,3-c]pyrazole] |
